These results are taken from US10538555B2, “Macrocyclic inhibitors of the PD-1/PD-L1 and CD80(B7-1)/PD-L1 protein/protein interactions” (BRISTOL-MYERS SQUIBB COMPANY, priority 2014, dated 2020).

pIC50: −log10 of the molar value. *1 amine or outer side, *2 acyl side, *3 side chain or, on linkers, in order; H or OH if unused. Where a SMILES comes first, the peptide text is derived from it. Bridges are numbered along the chain shown (N, C = ends). [ ]: non-standard residue; d: D form. Trp(1-CH2COOH) = N[C@@H](Cc1cn(CC(=O)O)c2ccccc12)C(=O)O; Phe(3,4,5-F3) = N[C@@H](Cc1cc(F)c(F)c(F)c1)C(=O)O; Phe(3,4-F2) = N[C@@H](Cc1ccc(F)c(F)c1)C(=O)O; NMePhe(4-F) = CN[C@@H](Cc1ccc(F)cc1)C(=O)O; Phe(4-F) = N[C@@H](Cc1ccc(F)cc1)C(=O)O; d(cisHyp) = O=C(O)[C@H]1C[C@@H](O)CN1; NMeY = CN[C@@H](Cc1ccc(O)cc1)C(=O)O; Hyp = O=C(O)[C@@H]1C[C@@H](O)CN1; NMeF = CN[C@@H](Cc1ccccc1)C(=O)O; X1 = O=C([C@H]1COCCN1[*:1])[*:2]; dPip(4-aza) = O=C(O)[C@H]1CNCCN1; Cha = N[C@@H](CC1CCCCC1)C(=O)O; NMehSer = CN[C@@H](CCO)C(=O)O; NMeNle = CCCC[C@H](NC)C(=O)O; dPip = O=C(O)[C@H]1CCCCN1; hSer = N[C@@H](CCO)C(=O)O; NMeA = CN[C@@H](C)C(=O)O; Orn = NCCC[C@H](N)C(=O)O; dNMeA = CN[C@H](C)C(=O)O; dThz = O=C(O)[C@H]1CSCN1; Dab = NCC[C@H](N)C(=O)O; Dap = NC[C@H](N)C(=O)O; Sar = CNCC(=O)O

This assay has as its target T1, Human PD-L1/PD-1 (Homo sapiens, UniProt Q9NZQ7).
T1 construct: TVMV protease cleavage site (C); made in house; host or cells: HEK293T cells
The assay can be described thus: HTRF Human PD-L1/PD-1 binding assay (PD-1-Ig/PD-L1-His). Conditions: PD-L1-His 10 nM, PD-1-Ig 20 nM; class symbol; read-out: HTRF Human PD-L1/PD-1 Binding Assay IC50 Range. The procedure, abridged: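 Compound preincubated 15 min with PD-L1-His (10 nM final), then PD-1-Ig (20 nM final) added for 15 min in dPBS with 0.1% BSA and 0.05% Tween-20. Detection by Eu-cryptate anti-Ig (1 nM) and APC anti-His (20 nM) after 30 min; 665/620 nm HTRF ratio. Proteins expressed in HEK293T.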

T1 sequence (Q9NZQ7 with tags, fused parts or gaps): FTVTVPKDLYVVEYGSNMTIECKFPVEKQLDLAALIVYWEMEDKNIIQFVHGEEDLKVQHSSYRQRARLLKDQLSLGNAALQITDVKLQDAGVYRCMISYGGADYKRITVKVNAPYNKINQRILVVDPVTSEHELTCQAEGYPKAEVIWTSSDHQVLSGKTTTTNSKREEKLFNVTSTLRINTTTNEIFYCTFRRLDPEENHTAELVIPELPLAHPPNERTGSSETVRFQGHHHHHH

As for `CCCC[C@H]1C(=O)N2C[C@H](O)C[C@@H]2C(=O)N[C@@H](CC(=O)O)C(=O)N[C@@H](C(C)C)C(=O)N(C)[C@@H](Cc2ccccc2)C(=O)N[C@@H](CC(=O)O)C(=O)N2C[C@H](O)C[C@@H]2C(=O)N[C@@H](Cc2c[nH]c3ccccc23)C(=O)N[C@@H](Cc2ccc(O)cc2)C(=O)N[C@@H](CC(C)C)C(=O)N[C@H](C(=O)NCC(N)=O)CSCC(=O)N[C@@H](Cc2ccc(F)c(F)c2)C(=O)N(C)[C@@H](Cc2ccccc2)C(=O)N1C` [Example 9289] ({CH2CO}-[Phe(3,4-F2)][NMeF][NMeNle][d(cisHyp)]DV[NMeF]D[d(cisHyp)]WYLCG-NH2; thioether N-13), the pIC50 is 8.00 to 9.00. In the case of `CCCC[C@H]1C(=O)N(C)[C@@H](CCCC)C(=O)N[C@@H](CN)C(=O)N[C@H](C(=O)NCC(N)=O)CSCC(=O)N[C@@H](Cc2ccc(O)cc2)C(=O)N(C)[C@@H](C)C(=O)N[C@@H](CC(N)=O)C(=O)N2CCC[C@H]2C(=O)N[C@@H](CN)C(=O)N[C@@H](CCC(=O)O)C(=O)N2C[C@H](O)C[C@H]2C(=O)N[C@@H](Cc2c[nH]c3ccccc23)C(=O)N[C@@H](CO)C(=O)N[C@@H](Cc2cn(CC(=O)O)c3ccccc23)C(=O)N1C` [Example 5231] ({CH2CO}-Y[NMeA]NP[Dap]E[Hyp]WS[Trp(1-CH2COOH)][NMeNle][NMeNle][Dap]CG-NH2; thioether N-14) it was 8.00 to 9.00. For `CCCC[C@H]1C(=O)N2CCC[C@@H]2C(=O)N[C@@H](CC(=O)O)C(=O)N[C@@H](C(C)C)C(=O)N(C)[C@@H](Cc2ccccc2)C(=O)N[C@@H](CCN)C(=O)N2CCC[C@@H]2C(=O)N[C@@H](Cc2c[nH]c3ccccc23)C(=O)N[C@@H](Cc2ccc(O)cc2)C(=O)N[C@@H](CC(C)C)C(=O)N[C@H](C(=O)NCC(N)=O)CSCC(=O)N[C@@H](Cc2ccc(F)cc2)C(=O)N(C)[C@@H](Cc2ccccc2)C(=O)N1C` [Example 10105] ({CH2CO}-[Phe(4-F)][NMeF][NMeNle][dP]DV[NMeF][Dab][dP]WYLCG-NH2; thioether N-13), the pIC50 is 8.00 to 9.00. In the case of `CCCC[C@H]1C(=O)N(C)[C@@H](CCCC)C(=O)N[C@@H](CCN)C(=O)N[C@H](C(=O)NCC(N)=O)CSCC(=O)N[C@@H](Cc2ccc(O)cc2)C(=O)N(C)[C@@H](C)C(=O)N[C@@H](CC(N)=O)C(=O)N2CCC[C@H]2C(=O)N[C@@H](Cc2cnc[nH]2)C(=O)N[C@@H](CCC(=O)O)C(=O)N2C[C@H](O)C[C@H]2C(=O)N[C@@H](Cc2c[nH]c3ccccc23)C(=O)N[C@@H](CCN)C(=O)N[C@@H](Cc2cn(CC(=O)O)c3ccccc23)C(=O)N1C` [Example 6331] ({CH2CO}-Y[NMeA]NPHE[Hyp]W[Dab][Trp(1-CH2COOH)][NMeNle][NMeNle][Dab]CG-NH2; thioether N-14) it was 8.00 to 9.00; in that of `CCCC[C@H]1C(=O)N(C)[C@@H](CCCC)C(=O)N[C@@H](CCCN)C(=O)N[C@H](C(=O)NCC(N)=O)CSCC(=O)N[C@@H](Cc2ccc(OC)cc2)C(=O)N(C)[C@@H](C)C(=O)N[C@@H](CC(N)=O)C(=O)N2CCC[C@H]2C(=O)N[C@@H](Cc2cnc[nH]2)C(=O)N[C@@H](CCCCN)C(=O)N2C[C@H](O)C[C@H]2C(=O)N[C@@H](Cc2c[nH]c3ccccc23)C(=O)N[C@@H](CC(=O)O)C(=O)N[C@@H](Cc2c[nH]c3ccccc23)C(=O)N1C` [Example 7128] ({CH2CO}-Y(Me)[NMeA]NPHK[Hyp]WDW[NMeNle][NMeNle][Orn]CG-NH2; thioether N-14), 7.00 to 8.00. In the case of `CCCC[C@H]1C(=O)N2C[C@H](O)C[C@@H]2C(=O)N[C@@H](CC(=O)O)C(=O)N[C@@H](C(C)C)C(=O)N(C)[C@@H](Cc2ccccc2)C(=O)N[C@@H](CCC(=O)O)C(=O)N2CCNC[C@@H]2C(=O)N[C@@H](Cc2c[nH]c3ccccc23)C(=O)N[C@@H](Cc2ccc(O)cc2)C(=O)N[C@@H](CCO)C(=O)N[C@H](C(=O)NCC(N)=O)CSCC(=O)N[C@@H](Cc2cc(F)c(F)c(F)c2)C(=O)N(C)[C@@H](Cc2ccccc2)C(=O)N1C` [Example 10165] ({CH2CO}-[Phe(3,4,5-F3)][NMeF][NMeNle][d(cisHyp)]DV[NMeF]E[dPip(4-aza)]WY[hSer]CG-NH2; thioether N-13) it was 8.00 to 9.00. In the case of `CCCC[C@H]1C(=O)N(C)[C@@H](CCCC)C(=O)N[C@@H](CCCN)C(=O)N[C@H](C(=O)NCC(N)=O)CSCC(=O)N[C@@H](Cc2ccc(OC)cc2)C(=O)N(C)[C@@H](C)C(=O)N[C@@H](CC(=O)O)C(=O)N2CCC[C@H]2C(=O)N[C@@H](Cc2cnc[nH]2)C(=O)N[C@@H](CCC(=O)O)C(=O)N2C[C@H](O)C[C@H]2C(=O)N[C@@H](Cc2c[nH]c3ccccc23)C(=O)N[C@@H](CCN)C(=O)N[C@@H](Cc2c[nH]c3ccccc23)C(=O)N1C` [Example 7098] ({CH2CO}-Y(Me)[NMeA]DPHE[Hyp]W[Dab]W[NMeNle][NMeNle][Orn]CG-NH2; thioether N-14) it was 8.00 to 9.00.

As for `CC(C)C[C@@H]1NC(=O)[C@H](Cc2ccc(O)cc2)NC(=O)[C@H](Cc2c[nH]c3ccccc23)NC(=O)[C@@H](C)N(C)C(=O)[C@H](Cc2ccc(O)cc2)NC(=O)[C@H](Cc2ccccc2)N(C)C(=O)[C@H](C(C)C)NC(=O)[C@H](CC(=O)O)NC(=O)[C@@H](C)N(C)C(=O)[C@H](C)N(C)C(=O)[C@H](Cc2ccccc2)N(C)C(=O)[C@H](Cc2cc(F)c(F)c(F)c2)NC(=O)CSC[C@@H](C(=O)NCC(N)=O)NC1=O` [Example 9188] ({CH2CO}-[Phe(3,4,5-F3)][NMeF][NMeA][dNMeA]DV[NMeF]Y[dNMeA]WYLCG-NH2; thioether N-13), the pIC50 was 8.00 to 9.00. In the case of `CCCC[C@H]1C(=O)N2CSC[C@@H]2C(=O)N[C@@H](CO)C(=O)N[C@@H](C(C)C)C(=O)N(C)[C@@H](Cc2ccccc2)C(=O)N[C@@H](Cc2ccc(O)cc2)C(=O)N2CCC[C@@H]2C(=O)N[C@@H](Cc2c[nH]c3ccccc23)C(=O)N[C@@H](Cc2ccc(O)cc2)C(=O)N[C@@H](CC(C)C)C(=O)N[C@H](C(=O)NCC(N)=O)CSCC(=O)N[C@@H](Cc2ccccc2)C(=O)N(C)[C@@H](Cc2ccccc2)C(=O)N1C` [Example 10074] ({CH2CO}-F[NMeF][NMeNle][dThz]SV[NMeF]Y[dP]WYLCG-NH2; thioether N-13) it was 7.00 to 8.00.

Take `CCCC[C@H]1C(=O)N[C@@H](CC(C)C)C(=O)N[C@H](C(=O)NCC(N)=O)CSCC(=O)N[C@@H](Cc2ccc(O)cc2)C(=O)N(C)[C@@H](C)C(=O)N[C@@H](CCN)C(=O)N2CCC[C@H]2C(=O)N[C@@H](Cc2c[nH]cn2)C(=O)N[C@@H](CCC(=O)O)C(=O)N2C[C@H](O)C[C@H]2C(=O)N[C@@H](Cc2c[nH]c3ccccc23)C(=O)N[C@@H](CO)C(=O)N[C@@H](Cc2c[nH]c3ccccc23)C(=O)N(C)[C@@H](CCOC)C(=O)N1C` [Example 10140] ({CH2CO}-Y[NMeA][Dab]PHE[Hyp]WSW[NMehSer](Me)[NMeNle]LCG-NH2; thioether N-14): the pIC50 is 7.00 to 8.00. With `CCCC[C@H]1C(=O)N(C)CC(=O)N[C@@H](CC(=O)O)C(=O)N[C@@H](C(C)C)C(=O)N(C)[C@@H](Cc2ccccc2)C(=O)N[C@@H](Cc2ccc(O)cc2)C(=O)N(C)CC(=O)N[C@@H](Cc2c[nH]c3ccccc23)C(=O)N[C@@H](Cc2ccc(O)cc2)C(=O)N[C@@H](CC(C)C)C(=O)N[C@H](C(=O)NCC(N)=O)CSCC(=O)N[C@@H](CC2CCCCC2)C(=O)N(C)[C@@H](Cc2ccccc2)C(=O)N1C` [Example 3238] ({CH2CO}-[Cha][NMeF][NMeNle][Sar]DV[NMeF]Y[Sar]WYLCG-NH2; thioether N-13), the pIC50 was 6.00 to 7.00. In the case of `CCCC[C@H]1C(=O)N2C[C@H](O)C[C@@H]2C(=O)N[C@@H](CC(=O)O)C(=O)N[C@@H](C(C)C)C(=O)N(C)[C@@H](Cc2ccccc2)C(=O)N[C@@H](CCC(=O)O)C(=O)N2CCOC[C@@H]2C(=O)N[C@@H](Cc2c[nH]c3ccccc23)C(=O)N[C@@H](Cc2ccc(O)cc2)C(=O)N[C@@H](CC(N)=O)C(=O)N[C@H](C(=O)NCC(N)=O)CSCC(=O)N[C@@H](Cc2cc(F)c(F)c(F)c2)C(=O)N(C)[C@@H](Cc2ccc(F)cc2)C(=O)N1C` [Example 10591] ({CH2CO}-[Phe(3,4,5-F3)][NMePhe(4-F)][NMeNle][d(cisHyp)]DV[NMeF]E[X1]WYNCG-NH2; thioether N-13) it was 8.00 to 9.00; in that of `CCCC[C@H]1C(=O)N(C)[C@@H](CCCC)C(=O)N[C@@H](CCC(=O)O)C(=O)N[C@H](C(=O)NCC(N)=O)CSCC(=O)N[C@@H](Cc2ccc(O)cc2)C(=O)N(C)[C@@H](C)C(=O)N[C@@H](CC(=O)O)C(=O)N2CCC[C@H]2C(=O)N[C@@H](CO)C(=O)N[C@@H](CCC(=O)O)C(=O)N2C[C@H](O)C[C@H]2C(=O)N[C@@H](Cc2c[nH]c3ccccc23)C(=O)N[C@@H](CCN)C(=O)N[C@@H](Cc2c[nH]c3ccccc23)C(=O)N1C` [Example 5252] ({CH2CO}-Y[NMeA]DPSE[Hyp]W[Dab]W[NMeNle][NMeNle]ECG-NH2; thioether N-14), 8.00 to 9.00. Regarding `CCCC[C@H]1C(=O)N2CCC[C@@H]2C(=O)N[C@@H](CC(=O)O)C(=O)N[C@@H](C(C)C)C(=O)N(C)[C@@H](Cc2ccccc2)C(=O)N[C@@H](CCC(=O)O)C(=O)N2CCCC[C@@H]2C(=O)N[C@@H](Cc2c[nH]c3ccccc23)C(=O)N[C@@H](Cc2ccc(O)cc2)C(=O)N[C@@H](CC(C)C)C(=O)N[C@H](C(=O)NCC(N)=O)CSCC(=O)N[C@@H](Cc2cc(F)c(F)c(F)c2)C(=O)N(C)[C@@H](Cc2ccc(OC)cc2)C(=O)N1C` [Example 10602] ({CH2CO}-[Phe(3,4,5-F3)][NMeY](Me)[NMeNle][dP]DV[NMeF]E[dPip]WYLCG-NH2; thioether N-13), the pIC50 is 8.00 to 9.00. In the case of `CCCC[C@H]1C(=O)N2CCOC[C@@H]2C(=O)N[C@@H](CC(=O)O)C(=O)N[C@@H](C(C)C)C(=O)N(C)[C@@H](Cc2ccccc2)C(=O)N[C@@H](CCN)C(=O)N2CCOC[C@@H]2C(=O)N[C@@H](Cc2c[nH]c3ccccc23)C(=O)N[C@@H](Cc2ccc(O)cc2)C(=O)N[C@@H](CCC(=O)O)C(=O)N[C@H](C(=O)NCC(N)=O)CSCC(=O)N[C@@H](Cc2cc(F)c(F)c(F)c2)C(=O)N(C)[C@@H](Cc2ccc(O)cc2)C(=O)N1C` [Example 10628] ({CH2CO}-[Phe(3,4,5-F3)][NMeY][NMeNle][X1]DV[NMeF][Dab][X1]WYECG-NH2; thioether N-13) it was 7.00 to 8.00.
